For one experiment, the target named is T1, CDK1:Cyclin-B (Homo sapiens, UniProt P06493).
T1 construct: purchased New England Biolabs 6020; host or cells: insect cells
The experiment can be described thus: CDK1 Screening Assay. Conditions: read-out: CDK1 IC50. Format: biochemical. The gist of the method: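 Human CDK1:cyclin-B (30 ng/well) with biotinylated histone-H1 peptide and ^33P-γ-ATP, 1 h at 30° C, 1% DMSO, on streptavidin FlashPlate; incorporation read by scintillation.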

Experiment [1] deals with T2, VEGF-R (vascular endothelial growth factor receptor-2) (Rattus norvegicus, UniProt O08775).
T2 construct: polyhistidine (6xHIS) (N)
T2 sequence (O08775 786-1343): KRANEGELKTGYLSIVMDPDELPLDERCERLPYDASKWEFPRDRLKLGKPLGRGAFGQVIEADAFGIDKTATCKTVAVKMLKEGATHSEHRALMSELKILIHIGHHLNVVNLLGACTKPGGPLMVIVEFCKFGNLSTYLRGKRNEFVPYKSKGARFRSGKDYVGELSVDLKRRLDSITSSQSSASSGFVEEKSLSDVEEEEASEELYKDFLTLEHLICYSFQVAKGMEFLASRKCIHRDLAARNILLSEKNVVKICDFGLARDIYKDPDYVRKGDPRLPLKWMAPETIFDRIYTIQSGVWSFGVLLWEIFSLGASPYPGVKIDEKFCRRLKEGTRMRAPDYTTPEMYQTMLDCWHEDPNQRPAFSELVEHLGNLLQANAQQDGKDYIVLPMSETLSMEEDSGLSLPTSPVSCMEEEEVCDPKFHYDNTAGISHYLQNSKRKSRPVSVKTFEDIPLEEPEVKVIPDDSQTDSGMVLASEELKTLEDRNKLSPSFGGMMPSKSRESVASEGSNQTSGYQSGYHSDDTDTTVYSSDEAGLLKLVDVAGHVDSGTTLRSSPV
Nature of the experiment: VEGF-R Screening Assay. Format: biochemical. Conditions: read-out: VEGF-R IC50.

Experiment [2] concerns the target T3, CDK2 in complex with cyclin A (Homo sapiens, UniProt P24941).
T3 construct: purchased Upstate Biotech
The experiment can be described thus: Kinase Selectivity Assay CDK2. Format: biochemical. On the procedure:
(§1) Assays to test compound inhibition of other kinases were preformed using methods that measure the amount of phosphorylation of a biotinylated peptide substrate. Biotinylated peptide substrates were selected from the literature as appropriate for the enzyme being evaluated. […] Assay conditions vary slightly for each protein kinase, for example, insulin receptor kinase requires 10 mM MnCl2 for activity and Calmodulin-dependent protein kinase requires calmodulin and 10 mM CaCl2. These assay conditions are known in the art. The reaction mixture was dispensed into the wells of a streptavidin coated Flashplate and 1 μl drug stock in 100% DMSO was added to a 100 μl reaction volume resulting in a final concentration of 1% DMSO on the reaction. Enzyme was diluted in 50 mM Tris-HCl pH=8.0, 0.1% BSA and add to each well. The reaction was incubated for one hour at 30° C. in the presence of compound. After one hour the reaction mix was aspirated from the plate and the plate was washed with PBS containing 100 mM EDTA. The plate was read on a scintillation counter to determine ^33P-γ-ATP incorporated into the immobilized peptide. Test compounds were assayed in duplicate at 8 concentrations [100 uM, 10 uM, 1 uM, 100 nM, 10 nM, 1 nM, 100 pM, 10 pM]. A maximum and minimum signal for the assay was determined on each plate. The IC50 was calculated from the dose response curve of the percent inhibition of the maximum signal in the assay according to the formula [max signal—background/test compound signal—background (100)=% inhibition] by graphing the percent inhibition against the log concentration of test compound. Known inhibitor compounds appropriate for the kinase being assayed were also included on each plate.
(§2) CDK2 in complex with cyclin A is commercially available (Upstate Biotech, Lake Placid, N.Y.). The CDK4 complex was composed of a mouse CDK4 protein and a mouse Cyclin D1 protein (The mouse CDK4 protein was genetically fused to an N-terminal Flag-epitope tag and the mouse Cyclin D1 protein was fused with an N-terminal AU-1 epitope tag. The genes encoding these proteins were transferred to commercially available baculoviral vectors. The recombinant CDK4/D1 complex was then made by co-infecting commercially available insect cells with viruses carrying these two constructs). […] ERK-1 protein (Discontinued from Calbiochem). EGFR (epidermal growth factor receptor) is purified from human A431 cell membranes (Sigma, St. Louis, Mo., Cat.# E3641).

Experiment [3] has as its target T4, Glycogen Synthase Kinase-3 (beta isoform) (Oryctolagus cuniculus, UniProt G1T8E2).
T4 construct: purchased New England Biolabs 6040; host or cells: E. coli
Nature of the experiment: Kinase Selectivity Assay Glycogen Synthase Kinase-3. Conditions: Kinase Selectivity, Tables 2a-2k; read-out: GSK-3 IC50. Format: biochemical, rabbit. The procedure: as §1, §2

Experiment [4] concerns the target T5, HER2 (human epidermal growth factor receptor-2) (Homo sapiens, UniProt P04626).
T5 construct: begins at amino acid 676 followed by the remainder of the HER2 cytoplasmic domain; polyhistidine (N)
Nature of the experiment: Kinase Selectivity Assay HER2. The class given is biochemical. The gist of the method:
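Radiometric Flashplate format: ^33P-γ-ATP transfer to immobilized biotinylated peptide, 1 h, 30° C, 1% DMSO final, enzyme in 50 mM Tris-HCl pH=8.0 + 0.1% BSA. Duplicate 8-point dilution, 100 uM down to 10 pM. IC50 from % inhibition of plate max signal versus log conc.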

The next experiment addresses Insulin Receptor Kinase (Homo sapiens, UniProt P06213). The experiment can be described thus: Kinase Selectivity Assay Insulin Receptor Kinase. The class given is biochemical. The settings on record: Kinase Selectivity, Tables 2a-2k; read-out: Insulin R Kinase IC50. On the procedure: as §1, §2
The target in another experiment is T6, Protein Kinase A (Bos taurus, UniProt P00517).
T6 construct: purified from bovine heart; purchased Upstate Biotech 14-114; host or cells: bovine heart
Nature of the experiment: Kinase Selectivity Assay Protein Kinase A. The class given is biochemical, bovine. The settings on record: Kinase Selectivity, Tables 2a-2k; read-out: PKA IC50. The procedure: as §1, §2

Experiment [5] has as its target T7, Casein Kinase 1 (CK1 delta isoform) (Rattus norvegicus, UniProt Q06486).
T7 construct: a truncation at amino acid 318 of the C-terminal portion of the rat CK1 delta isoform; purchased New England Biolabs 6030; host or cells: E. coli
T7 sequence (Q06486 1-317): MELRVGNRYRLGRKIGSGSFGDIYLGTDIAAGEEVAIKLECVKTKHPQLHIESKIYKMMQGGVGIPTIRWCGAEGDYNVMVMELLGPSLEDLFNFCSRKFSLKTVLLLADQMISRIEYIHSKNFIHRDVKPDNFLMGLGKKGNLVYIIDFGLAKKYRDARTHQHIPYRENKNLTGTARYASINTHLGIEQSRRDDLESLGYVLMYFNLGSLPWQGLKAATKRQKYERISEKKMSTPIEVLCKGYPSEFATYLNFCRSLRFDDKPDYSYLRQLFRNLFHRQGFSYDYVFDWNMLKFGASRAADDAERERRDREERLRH
The experiment can be described thus: Kinase Selectivity Assay Casein Kinase 1. The class given is biochemical. The settings on record: Tables 2a-2k, read-out: Caseine Kinase 1 IC50. On the procedure: as §1, §2

The target in experiment [6] is T8, Casein Kinase 2 (alpha and beta subunits) (Homo sapiens, UniProt P68400).
T8 construct: purchased New England Biolabs 6010; host or cells: E. coli
T8 sequence (P68400 whole entry): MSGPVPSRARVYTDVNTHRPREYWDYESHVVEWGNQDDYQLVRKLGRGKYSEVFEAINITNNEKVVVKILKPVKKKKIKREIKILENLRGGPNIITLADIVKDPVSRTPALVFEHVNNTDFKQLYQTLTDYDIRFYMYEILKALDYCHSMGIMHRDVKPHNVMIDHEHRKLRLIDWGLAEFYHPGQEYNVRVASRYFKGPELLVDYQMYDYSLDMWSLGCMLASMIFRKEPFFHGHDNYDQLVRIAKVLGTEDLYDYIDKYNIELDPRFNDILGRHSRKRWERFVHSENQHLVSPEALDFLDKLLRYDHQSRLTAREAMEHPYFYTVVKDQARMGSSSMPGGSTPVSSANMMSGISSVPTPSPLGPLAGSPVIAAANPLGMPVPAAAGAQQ
T8 sequence (P67870 whole entry partner): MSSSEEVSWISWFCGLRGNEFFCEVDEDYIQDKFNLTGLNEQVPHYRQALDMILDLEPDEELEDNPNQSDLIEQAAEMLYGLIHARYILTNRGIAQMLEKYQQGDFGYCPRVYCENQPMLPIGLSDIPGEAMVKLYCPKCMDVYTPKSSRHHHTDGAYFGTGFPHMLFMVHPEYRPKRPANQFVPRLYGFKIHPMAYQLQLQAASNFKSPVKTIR
Nature of the experiment: Kinase Selectivity Assay Casein Kinase 2. Format: biochemical. The settings on record: Kinase Selectivity, Tables 2a-2k; read-out: Caseine Kinase 2 IC50. The procedure:
as §1, §2

Experiment [7] has as its target T9, Calmodulin Kinase (calmodulin-dependent protein kinase 2) (Rattus norvegicus, UniProt P11275).
T9 construct: a truncated version of the alpha subunit of the rat protein; purchased New England Biolabs 6060; host or cells: insect cells
The experiment can be described thus: Kinase Selectivity Assay Calmodulin Kinase. Format: biochemical. Conditions: Kinase Selectivity, Tables 2a-2k; read-out: Calmodulin Kinase 2 IC50. The procedure: as §1, §2

The target in experiment [8] is T10, MAP Kinase (ERK-2 isoform) (Rattus norvegicus, UniProt P63086).
T10 construct: polyhistidine (N); host or cells: E. coli
T10 sequence (P63086 whole entry, canonical isoform): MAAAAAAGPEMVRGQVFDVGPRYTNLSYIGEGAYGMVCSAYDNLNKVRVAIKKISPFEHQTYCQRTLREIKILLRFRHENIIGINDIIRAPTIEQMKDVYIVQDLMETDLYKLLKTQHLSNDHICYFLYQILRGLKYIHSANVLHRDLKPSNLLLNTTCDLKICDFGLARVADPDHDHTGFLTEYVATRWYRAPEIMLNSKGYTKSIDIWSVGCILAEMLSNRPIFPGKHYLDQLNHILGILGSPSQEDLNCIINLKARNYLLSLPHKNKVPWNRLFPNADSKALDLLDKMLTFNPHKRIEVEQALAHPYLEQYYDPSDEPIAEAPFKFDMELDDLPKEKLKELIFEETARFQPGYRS
The experiment can be described thus: Kinase Selectivity Assay MAP Kinase (ERK-2). The settings on record: Kinase Selectivity, Tables 2a-2k; read-out: ERK 2 IC50. Format: biochemical. On the procedure:
as §1, §2

Experiment [9] has as its target T11, PDGF-R (platelet derived growth factor receptor) beta subunit kinase domain (Homo sapiens, UniProt P09619).
T11 construct: nucleotides 1874-3507 of the human PDGF-R beta subunit kinase domain; polyhistidine (N)
The experiment can be described thus: Kinase Selectivity Assay PDGF-R. Format: biochemical. Conditions: Kinase Selectivity, Tables 2a-2k; read-out: PDGF-R kinase IC50. On the procedure: as §1, §2

[10] abbreviates: Kinase Selectivity, Tables 2a-2k.
[11] abbreviates: Kinase Selectivity, Tables 2a-2k, read-out: HER2 Kinase IC50.

Read-outs that look alike come from different tables or passages of the source.

T4 sequence (G1T8E2 1-432): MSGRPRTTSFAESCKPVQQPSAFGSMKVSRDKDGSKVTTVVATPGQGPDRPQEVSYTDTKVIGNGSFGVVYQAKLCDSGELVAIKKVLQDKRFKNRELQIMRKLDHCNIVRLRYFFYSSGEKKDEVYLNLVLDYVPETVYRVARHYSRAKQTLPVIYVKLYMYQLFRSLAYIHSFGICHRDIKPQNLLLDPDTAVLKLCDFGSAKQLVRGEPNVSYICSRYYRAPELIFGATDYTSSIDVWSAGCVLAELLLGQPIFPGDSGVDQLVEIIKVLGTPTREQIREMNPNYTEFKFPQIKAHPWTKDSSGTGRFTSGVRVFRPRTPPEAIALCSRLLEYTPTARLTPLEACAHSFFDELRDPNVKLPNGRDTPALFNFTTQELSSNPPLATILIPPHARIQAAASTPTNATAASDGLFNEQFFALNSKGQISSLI
T5 sequence (P04626 676-1255 limits assumed): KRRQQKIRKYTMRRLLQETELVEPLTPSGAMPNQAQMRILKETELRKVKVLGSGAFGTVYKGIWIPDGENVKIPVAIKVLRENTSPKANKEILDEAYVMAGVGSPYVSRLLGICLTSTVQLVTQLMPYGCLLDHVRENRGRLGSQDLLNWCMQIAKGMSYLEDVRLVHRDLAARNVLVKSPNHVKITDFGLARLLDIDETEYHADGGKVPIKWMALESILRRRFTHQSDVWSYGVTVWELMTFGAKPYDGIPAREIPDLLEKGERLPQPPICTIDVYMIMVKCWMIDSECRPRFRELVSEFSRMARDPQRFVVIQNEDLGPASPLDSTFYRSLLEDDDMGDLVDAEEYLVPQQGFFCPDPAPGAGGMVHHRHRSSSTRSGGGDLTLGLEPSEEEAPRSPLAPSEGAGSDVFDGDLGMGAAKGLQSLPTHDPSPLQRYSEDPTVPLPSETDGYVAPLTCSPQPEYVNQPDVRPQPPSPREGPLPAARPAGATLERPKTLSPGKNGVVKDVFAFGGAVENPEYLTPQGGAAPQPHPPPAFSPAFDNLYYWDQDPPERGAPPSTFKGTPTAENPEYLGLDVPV
T1 sequence (P06493 whole entry): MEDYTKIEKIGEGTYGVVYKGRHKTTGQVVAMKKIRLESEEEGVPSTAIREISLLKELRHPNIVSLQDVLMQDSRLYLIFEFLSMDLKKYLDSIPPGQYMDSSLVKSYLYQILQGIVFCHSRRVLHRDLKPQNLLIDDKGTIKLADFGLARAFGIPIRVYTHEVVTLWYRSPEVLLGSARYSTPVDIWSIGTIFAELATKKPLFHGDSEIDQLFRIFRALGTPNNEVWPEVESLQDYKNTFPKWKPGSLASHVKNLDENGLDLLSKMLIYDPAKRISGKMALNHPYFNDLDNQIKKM
T1 sequence (P14635 whole entry partner): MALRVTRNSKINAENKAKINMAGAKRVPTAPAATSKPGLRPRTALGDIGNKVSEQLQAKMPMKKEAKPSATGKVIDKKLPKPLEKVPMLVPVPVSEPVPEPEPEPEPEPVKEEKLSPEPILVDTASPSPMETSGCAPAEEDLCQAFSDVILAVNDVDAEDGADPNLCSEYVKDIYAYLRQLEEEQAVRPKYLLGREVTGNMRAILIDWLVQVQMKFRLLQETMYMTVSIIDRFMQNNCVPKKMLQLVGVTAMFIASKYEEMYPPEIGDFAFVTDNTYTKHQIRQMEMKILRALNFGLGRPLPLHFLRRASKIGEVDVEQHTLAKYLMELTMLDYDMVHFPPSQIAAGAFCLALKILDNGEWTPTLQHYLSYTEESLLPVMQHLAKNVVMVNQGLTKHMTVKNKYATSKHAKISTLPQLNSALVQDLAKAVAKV
Chain of Insulin Receptor Kinase (P06213 980-1352): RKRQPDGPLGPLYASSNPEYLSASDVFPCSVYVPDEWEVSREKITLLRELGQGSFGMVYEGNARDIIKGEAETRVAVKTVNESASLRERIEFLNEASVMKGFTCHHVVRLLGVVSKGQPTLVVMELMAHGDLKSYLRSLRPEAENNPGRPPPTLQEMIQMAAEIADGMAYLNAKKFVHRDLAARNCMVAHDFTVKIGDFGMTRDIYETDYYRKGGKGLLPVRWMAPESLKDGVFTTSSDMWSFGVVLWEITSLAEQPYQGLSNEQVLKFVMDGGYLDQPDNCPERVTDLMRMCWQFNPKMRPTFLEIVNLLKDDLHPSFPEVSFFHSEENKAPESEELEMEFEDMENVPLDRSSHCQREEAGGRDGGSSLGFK
T11 sequence (P09619 564-1106): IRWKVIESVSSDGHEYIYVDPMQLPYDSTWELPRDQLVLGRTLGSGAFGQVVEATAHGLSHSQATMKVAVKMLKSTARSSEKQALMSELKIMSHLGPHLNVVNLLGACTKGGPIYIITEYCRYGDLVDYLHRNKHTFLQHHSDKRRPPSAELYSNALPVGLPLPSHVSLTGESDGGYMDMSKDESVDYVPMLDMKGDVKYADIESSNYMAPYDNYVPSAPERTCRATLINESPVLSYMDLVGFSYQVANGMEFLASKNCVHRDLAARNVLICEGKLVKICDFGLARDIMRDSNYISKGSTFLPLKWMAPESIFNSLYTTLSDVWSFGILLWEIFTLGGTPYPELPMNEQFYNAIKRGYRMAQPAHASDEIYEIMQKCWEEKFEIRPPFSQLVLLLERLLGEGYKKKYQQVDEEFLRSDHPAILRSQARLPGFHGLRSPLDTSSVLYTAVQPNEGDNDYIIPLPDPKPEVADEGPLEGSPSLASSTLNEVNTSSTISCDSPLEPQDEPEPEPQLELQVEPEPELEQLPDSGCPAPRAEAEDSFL

The IC50 is the concentration that inhibits the measured activity by half. Take `Nc1nc(Nc2ccccc2)nn1C(=O)c1c(F)cccc1F` [Cpd 61, 1-(2,6-Difluorobenzoyl)-N^3-phenyl-1H-1,2,4-triazole-3,5-diamine]: the IC50 at CDK1:Cyclin-B (setting [10]) was determined as 0.18 µM; in [1] (setting [10]), 0.072 µM; in experiment [2] (setting [10]) it was 0.049 µM; in experiment [3], 0.055 µM; in experiment [4] (setting [11]), 0.82 µM.
Taken in the same sequence, the figures for `Nc1nc(Nc2ccccc2)nn1C(=O)c1ccccc1` [Cpd 62, 1-benzoyl-N^3-phenyl-1H-1,2,4-triazole-3,5-diamine] were 0.53 µM, 0.064 µM, 0.29 µM, 0.073 µM and 0.41 µM.
Taken in the same sequence, the figures for `Nc1nc(Nc2cccc(Cl)c2)nn1C(=O)c1c(F)cccc1F` [Cpd 63, N^3-(3-chlorophenyl)-1-(2,6-difluorobenzoyl)-1H-1,2,4-triazole-3,5-diamine] were 0.079 µM, 0.32 µM, 0.056 µM, 0.073 µM and 0.15 µM.
Taken in the same sequence, the figures for `Nc1nc(Nc2cccc(Cl)c2)nn1C(=O)c1ccccc1` [Cpd 64, 1-benzoyl-N^3-(3-chlorophenyl)-1H-1,2,4-triazole-3,5-diamine] were 0.21 µM, 0.051 µM, 0.2 µM, 0.021 µM and 0.076 µM.
For `Nc1nc(Nc2ccccc2)nn1C(=O)Nc1ccccc1` [Cpd 65, 5-amino-N-phenyl-3-(phenylamino)-1H-1,2,4-triazole-1-carboxamide], the IC50 on CDK1:Cyclin-B (setting [10]) is 0.67 µM; in [1] (setting [10]), 0.18 µM; in experiment [2] (setting [10]), 0.41 µM; in experiment [3], 0.1 µM; in experiment [4] (setting [11]), 0.79 µM.
`Nc1nc(Nc2ccc(S(N)(=O)=O)cc2)nn1C(=O)c1c(F)ccc(Cl)c1F` [Cpd 78, 4-[[5-amino-1-(3-chloro-2,6-difluorobenzoyl)-1H-1,2,4-triazol-3-yl]amino]-benzenesulfonamide]: the IC50 turned out to be 0.0066 µM at CDK1:Cyclin-B (Table 1); 0.42 µM in experiment [1] (Table 1); 0.0017 µM in experiment [2] (Table 1); 0.78 µM in experiment [4] (Table 1, read-out: HER2 IC50).
For `CNc1nc(N)n(C(=O)c2sccc2C)n1` [Cpd 79, N^3-methyl-1-[(3-methyl-2-thienyl)carbonyl]-1H-1,2,4-triazole-3,5-diamine], the IC50 at CDK1:Cyclin-B (Table 1) is over 100 µM; in [1] (Table 1), over 100 µM; in experiment [2] (Table 1), over 100 µM; in experiment [4] (Table 1, read-out: HER2 IC50), over 100 µM.
On to `CN(C)CCNS(=O)(=O)c1ccc(Nc2nc(N)n(C(=O)c3c(F)cccc3F)n2)cc1` [Cpd 106], for which the IC50 at CDK1:Cyclin-B (Table 1) came out at 0.125 µM; in experiment [1] (Table 1), 0.559 µM; in experiment [2] (Table 1) it was 0.001 µM; in [4] (Table 1, read-out: HER2 IC50), 37.2 µM.
In the case of `Nc1nc(Nc2ccccc2)n(C(=O)c2c(F)cccc2F)n1` [Cpd 124, 1-(2,6-difluorobenzoyl)-N^5-phenyl-1H-1,2,4-triazole-3,5-diamine], the IC50 on CDK1:Cyclin-B (setting [10]) worked out at 2.2 µM; in experiment [1] (setting [10]), 4.8 µM; in experiment [2] (setting [10]), 1.7 µM; in experiment [3], 3 µM; in experiment [4] (setting [11]), 0.82 µM.
As for `Nc1nc(Nc2ccccc2)n(C(=O)c2ccccc2)n1` [Cpd 125, 1-benzoyl-N^5-phenyl-1H-1,2,4-triazole-3,5-diamine], the IC50 was over 100 µM on CDK1:Cyclin-B (setting [10]); over 100 µM in [1] (setting [10]); 7.3 µM in experiment [2] (setting [10]); over 100 µM in experiment [3]; over 100 µM in experiment [4] (setting [11]).
As to `Nc1nc(Nc2ccc(S(N)(=O)=O)cc2)n(C(=S)Nc2c(F)cccc2F)n1` [Cpd 128, 3-amino-5-[[4-(aminosulfonyl)phenyl]amino]-N-(2,6-difluorophenyl)-1H-1,2,4-triazole-1-carbothioamide], the IC50 in experiment [1] (setting [10]) was 0.118 µM; in [1] (Table 1), 0.118 µM; in [2] (Table 1), 0.0033 µM; at Insulin Receptor Kinase, 2.65 µM; on Protein Kinase A it was over 100 µM; in [5] it was 8.97 µM. Further, the IC50 in experiment [6] was over 100 µM; in experiment [7], 13.2 µM; in experiment [3], 0.094 µM; in experiment [8] it was 2.07 µM; in [9], 1.91 µM.

The values above are taken from patent US6924302B2, “Substituted triazole diamine derivatives as kinase inhibitors” (Ortho McNeil Pharmaceutical, Inc., priority 2000, dated 2005).
